# Assay results published in patent publication US11932663B2 (CanWell Biotech Limited, priority 2020, dated 2024).
# Tested on: Human PBMC
# Test: TLR7/8 agonists induce cytokine release in human PBMC (ELISA of culture supernatant)
# Assay type: cell-based
# Details: 24 h incubation, lowest concentration inducing cytokine at least 2x greater than negative control wells
# Procedure: Example 8. TLR7/8 Agonists Induce IFN-Gamma and TNF-Alpha Release in Human PBMC
# The system is used to assess the cytokines release. Activity is based on the measurement of interferon-gamma (IFN-γ) and tumor necrosis factor-alpha (TNF-α) secreted into culture media.
# Fresh human blood was diluted with the same volume of PBS, 15 mL Lymphoprep was added into a Sepmate tube, then 30 mL diluted blood was added on the top gently without disturbing the interface.
# The Sepmate tube was centrifuged for 25 min at 1000×g at RT with brake off.
# The buffy coat containing peripheral blood mononuclear cells (PBMCs) was collected from Sepmate tube and transferred into a new tube, and the cells were washed with 40 mL PBS twice and centrifuged at 350×g for 5 min.
# PBMCs were resuspended in complete culture medium at a density of 2E6/ml.
# The compounds are solubilized in dimethyl sulfoxide (DMSO) and diluted into indicated concentration with complete culture medium.
# 2*10^5 PBMCs (in 100 μL) were added to each well of 96-well flat bottom plate.
# 2× final concentration of 3-fold serial diluted compounds (in 100 μL) were added to indicated wells and final volume was 200 μL.
# The plate was covered with sterile lids, mixed gently and then incubated for 24 h at 37° C./5% CO2 incubator.
# Following incubation, the plates was centrifuged for 5 min. at 400×g. The cell-free culture Supernatant was removed into a non-sterile polypropylene plate. Samples are maintained at −80° C. until analysis. The samples were analyzed for TNF-α and IFN-γ by ELSA according to the direction.
# TNF-α and IFN-α were analyzed by ELISA. IFN-α concentration was determined by ELISA using a Human IFN-α ELISA Kit from R&D Systems (Catalog #41100-2) and read on VICTOR Nivo™ from PerkinElmer. Results were expressed in pg/mL. TNF-α concentration was determined by ELISA using a Human TNF-alpha ELISA MAX™ Deluxe from BioLegend (Catalog #430205) and read on VICTOR Nivo™ from PerkinElmer. Results were expressed in pg/mL.
# Specifically, the MEC of each compound (micromolar) was determined as the lowest concentration of the compound that induced a measured cytokine response at a level ([…]) that was at least 2× greater than that observed with the negative control wells.
Structure (SMILES),MEC to induce cytokine IFN-alpha [µM],MEC to induce cytokine TNF-alpha [µM]
"CCCCc1nc2c(N)nc3cc(P(C)(C)=O)ccc3c2n1OCCCCN [Example 1, (4-amino-1-(4-aminobutoxy)-2-butyl-1H-imidazo[4,5-c]quinolin-7-yl)dimethylphosphine oxide]",0.046,3.7
"CCCCc1nc2c(N)nc3cc(P(=O)(CC)CC)ccc3c2n1OCCCCN [Example 2, (4-amino-1-(4-aminobutoxy)-2-butyl-1H-imidazo[4,5-c]quinolin-7-yl)diethylphosphine oxide]",0.137,11.1
"CCCCCCCCCCCCCCCCCC(=O)NCCCCOn1c(CCCC)nc2c(N)nc3cc(P(C)(C)=O)ccc3c21 [Example 3, N-(4-((4-amino-2-butyl-7-(dimethylphosphoryl)-1H-imidazo[4,5-c]quinolin-1-yl)oxy)butyl)stearamide]",0.015,0.015
CCCCCCCCCCCCCCCCCNc1c(NCCCCOn2c(CCCC)nc3c(N)nc4cc(P(C)(C)=O)ccc4c32)c(=O)c1=O [Example 4],1.73,11.1
"CCCCCCCCCCCCCCCCCc1cn(CCCCOn2c(CCCC)nc3c(N)nc4cc(P(C)(C)=O)ccc4c32)nn1 [Example 6, (4-amino-2-butyl-1-(4-(4-heptadecyl-1H-1,2,3-triazol-1-yl)butoxy)-1H-imidazo[4,5-c]quinolin-7-yl)dimethylphosphine oxide]",>33.3,>33.3
"CCCCCCCCCCCCCCCCCNc1c(NCCCCOn2c(CCCC)nc3c(N)nc4cc(P(=O)(CC)CC)ccc4c32)c(=O)c1=O [Example 7, 3-(4-(4-amino-2-butyl-7-(diethylphosphoryl)-1H-imidazo[4,5-c]quinolin-1-yloxy)butylamino)-4-(heptadecylamino)cyclobut-3-ene-1,2-dione]",0.015,3.7
